Assay results taken from article PMC11374660, “The novel family of Warbicin® compounds inhibits glucose uptake both in yeast and human cells and restrains cancer cell proliferation” (Frontiers in Oncology, 2024).
Like-named read-outs stand apart in the source and are kept apart here.

Columns and labels:
Assay type in all cases: cell-based, S. cerevisiae
[1] = test system: glucose uptake by wild type yeast cells; assay: Zero-trans uptake of radioactive glucose in wild type yeast cells; settings: for IC50: radioactive glucose, 10 s, read-out: IC50 for inhibition of 2.5 mM glucose uptake
Description: Zero-trans uptake of radioactively labeled [U-^14C]glucose, [U-^14C]fructose or [U-^14C]galactose by S. cerevisiae cells was determined in accordance with previous studies ([45], [75]). Cells were grown on different carbon sources depending on the experiment. For measuring glucose uptake activity in the tps1Δ and tps1Δ hxtΔ strains, cells were grown on YP medium containing 325 mM glycerol (measurement of 10 s). Typically, for compound characterization and kinetic studies in wild type and tps1Δ strains, cells were (pre)grown on Complete Synthetic medium supplemented with 110 mM galactose (measurement of 10 s). In the experiments on the influence of hexokinase activity on the sugar uptake rate, the measurement duration was shortened to 5 s and cells were always grown on YP medium containing 325 mM glycerol and 430 mM ethanol. After harvesting, cells were washed twice with ice-cold 25 mM MES-buffer pH 6, and resuspended in their respective medium without sugar to a final concentration of 45 mg (wet weight)/mL. The amount of added tracer was estimated to give a response close to at least 1000 counts per min in order to adequately counter background noise. Cells were first preincubated for 10 min at 30°C with the compound to acclimate the cells to the temperature and to allow adequate interaction with the compound prior to uptake. Next, hexose sugar was mixed with the cell suspension, which was then incubated at 30°C for 5 or 10 s, depending on the experiment, after which the cells were rapidly filtered over a glass microfiber filter (Whatman GF/C) and washed three times with ice-cold dH2O. The loaded filter was transferred to a scintillation vial containing 3 mL liquid scintillation cocktail (Ultima-Flo M, Perkin Elmer) and counted using the Hidex 300 SL. Three blank measurements per strain were typically included to account for background signal, for which the cells were first quenched before adding the radioactive label.

[2] = target: T1, yeast Hxt7 (Saccharomyces cerevisiae, UniProt P39004); assay: Glucose uptake by Hxt7 expressed in yeast RE700A hxt^0 gal2Δ; settings: 25 µM, hxt^0 gal2Δ strain
T1 construct: expressed in transfected cells; host or cells: S. cerevisiae RE700A hxt0 gal2Δ (A7) or EBY.VW4000 hxt0 erg4Δ (A9) transformed with pHXT7
Description: Cells of S. cerevisiae were either grown in minimal or rich medium. For minimal medium, cells were grown in Complete Synthetic medium (MP biomedicals) containing 0.5% (w/v) ammonium sulphate (Sigma-Aldrich), 0.17% (w/v) yeast nitrogen base without amino acids and without ammonium sulphate, supplemented with 100 mg/L adenine. In the case of auxotrophic selection, the appropriate composition of essential amino acids (MP Biomedicals) was chosen. For liquid medium, pH was adjusted to 5.5 and for solid medium (2% agar) to 6.5 with KOH. For rich medium, cells were grown on YP medium (1% w/v yeast extract, 2% w/v bacteriological peptone), supplemented with 100 mg/L adenine. Cells of the EBY.VW4000 hxt^0 strain expressing a single HXT carrier or GLUT isoform were (pre)grown in YP medium with 58 mM maltose (which is taken up by its own dedicated maltose transporter). S. cerevisiae cells were always grown at 30°C. Liquid cultures were shaken at 200 rpm.
Zero-trans uptake of radioactively labeled [U-^14C]glucose, [U-^14C]fructose or [U-^14C]galactose by S. cerevisiae cells was determined in accordance with previous studies ([45], [75]). Cells were grown on different carbon sources depending on the experiment. […] The loaded filter was transferred to a scintillation vial containing 3 mL liquid scintillation cocktail (Ultima-Flo M, Perkin Elmer) and counted using the Hidex 300 SL. […]

[3] = test system: yeast tps1Δ cells; assay: Glu6P and Fru1,6bisP accumulation in tps1Δ yeast cells after glucose addition; settings: compound added at -10 min
Description: For measuring metabolite levels, yeast cells were typically grown in Complete Synthetic medium. […] However, when comparing the effect of Warbicin ® compounds on metabolite profiles of wild type and tps1Δ strains, cells were grown on 110 mM galactose. When grown to exponential phase, cells were harvested by centrifugation and washed twice with ice-cold 25 mM 2-(N-Morpholino)ethanesulfonic acid (MES) buffer, pH 6. Cells were suspended in Complete Synthetic medium without sugar at a concentration of 75 mg (wet weight)/mL followed by a temperature equilibration at 30°C in a shaking water bath for 30 min. Depending on the experiment, a final concentration of 2.5 mM, 7.5 mM or 10 mM glucose was added to the cell suspension. Compounds were added 10 min prior to glucose addition. […]
Through endpoint measurement of the absorbance of NADH or NADPH at 340 nm, metabolite concentrations in the yeast cells were calculated by applying Lambert’s Law. Different metabolites were measured through the use of coupled enzymatic reactions. […] Depending on the measured metabolite, different co-factors and auxiliary enzymes were added. For measuring glucose-6-phosphate, 1.07 mM NADP^+ was added to the assay buffer after which the baseline absorbance was measured. […] After stabilization of the OD340 spectra, ATP concentrations were measured by additionally adding 10 mM MgCl2 and 0.5 mM glucose to the assay buffer. […]

T1 sequence (P39004 whole entry): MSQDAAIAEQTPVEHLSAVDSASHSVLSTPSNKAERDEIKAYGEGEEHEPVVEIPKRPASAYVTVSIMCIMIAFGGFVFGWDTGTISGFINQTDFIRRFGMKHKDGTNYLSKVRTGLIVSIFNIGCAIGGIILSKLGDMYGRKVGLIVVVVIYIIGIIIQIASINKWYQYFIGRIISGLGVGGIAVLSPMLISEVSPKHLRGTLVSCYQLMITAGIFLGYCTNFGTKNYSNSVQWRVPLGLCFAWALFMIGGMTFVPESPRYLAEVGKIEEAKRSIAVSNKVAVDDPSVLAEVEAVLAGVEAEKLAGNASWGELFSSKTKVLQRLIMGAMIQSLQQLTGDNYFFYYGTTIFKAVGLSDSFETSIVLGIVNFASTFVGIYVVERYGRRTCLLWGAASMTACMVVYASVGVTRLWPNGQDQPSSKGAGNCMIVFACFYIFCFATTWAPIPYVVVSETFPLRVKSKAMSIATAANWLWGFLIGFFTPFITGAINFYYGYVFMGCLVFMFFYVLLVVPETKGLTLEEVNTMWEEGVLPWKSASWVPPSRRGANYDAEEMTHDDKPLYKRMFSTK

Cc1nc(Sc2nnc3n2CCCCC3)c2c(-c3cccs3)csc2n1 [WBC-A]
type of inhibition of glucose uptake (Lineweaver-Burk) [1]: mixed type of inhibition | IC50 ([1]; Saccharomyces cerevisiae): 17.1 µM | IC50 [1]: 19 µM | Ki ([1]; read-out: Ki (Dixon plot) for glucose uptake): 9.04 µM | inhibition of 2.5 mM glucose uptake by Hxt7 [2]: inhibited glucose uptake both by Hxt7 and GLUT1^V69M | hyperaccumulation of Glu6P and Fru1,6bisP after addition of 2.5 mM glucose [3]: concentration-dependent gradual drop in Glu6P and a more precipitous drop in Fru1,6bisP
